Consider 39 compounds from patent publication US10377753B2, “Substituted 4-azaindoles and their use as GluN2B receptor modulators” (Janssen Pharmaceutica NV, priority 2015, dated 2019).

For orientation: IC50 means the midpoint of a concentration-inhibition curve. One may read the pIC50 as the IC50 on a negative log10 scale, so that one unit is a factor of ten.

SMILES strings stand for the structures. Where a name gives a salt, the structure may show the parent alone.

Chain of cloned human NR1/NR2B ion channels (Q13224 27-1484, other chains not shown): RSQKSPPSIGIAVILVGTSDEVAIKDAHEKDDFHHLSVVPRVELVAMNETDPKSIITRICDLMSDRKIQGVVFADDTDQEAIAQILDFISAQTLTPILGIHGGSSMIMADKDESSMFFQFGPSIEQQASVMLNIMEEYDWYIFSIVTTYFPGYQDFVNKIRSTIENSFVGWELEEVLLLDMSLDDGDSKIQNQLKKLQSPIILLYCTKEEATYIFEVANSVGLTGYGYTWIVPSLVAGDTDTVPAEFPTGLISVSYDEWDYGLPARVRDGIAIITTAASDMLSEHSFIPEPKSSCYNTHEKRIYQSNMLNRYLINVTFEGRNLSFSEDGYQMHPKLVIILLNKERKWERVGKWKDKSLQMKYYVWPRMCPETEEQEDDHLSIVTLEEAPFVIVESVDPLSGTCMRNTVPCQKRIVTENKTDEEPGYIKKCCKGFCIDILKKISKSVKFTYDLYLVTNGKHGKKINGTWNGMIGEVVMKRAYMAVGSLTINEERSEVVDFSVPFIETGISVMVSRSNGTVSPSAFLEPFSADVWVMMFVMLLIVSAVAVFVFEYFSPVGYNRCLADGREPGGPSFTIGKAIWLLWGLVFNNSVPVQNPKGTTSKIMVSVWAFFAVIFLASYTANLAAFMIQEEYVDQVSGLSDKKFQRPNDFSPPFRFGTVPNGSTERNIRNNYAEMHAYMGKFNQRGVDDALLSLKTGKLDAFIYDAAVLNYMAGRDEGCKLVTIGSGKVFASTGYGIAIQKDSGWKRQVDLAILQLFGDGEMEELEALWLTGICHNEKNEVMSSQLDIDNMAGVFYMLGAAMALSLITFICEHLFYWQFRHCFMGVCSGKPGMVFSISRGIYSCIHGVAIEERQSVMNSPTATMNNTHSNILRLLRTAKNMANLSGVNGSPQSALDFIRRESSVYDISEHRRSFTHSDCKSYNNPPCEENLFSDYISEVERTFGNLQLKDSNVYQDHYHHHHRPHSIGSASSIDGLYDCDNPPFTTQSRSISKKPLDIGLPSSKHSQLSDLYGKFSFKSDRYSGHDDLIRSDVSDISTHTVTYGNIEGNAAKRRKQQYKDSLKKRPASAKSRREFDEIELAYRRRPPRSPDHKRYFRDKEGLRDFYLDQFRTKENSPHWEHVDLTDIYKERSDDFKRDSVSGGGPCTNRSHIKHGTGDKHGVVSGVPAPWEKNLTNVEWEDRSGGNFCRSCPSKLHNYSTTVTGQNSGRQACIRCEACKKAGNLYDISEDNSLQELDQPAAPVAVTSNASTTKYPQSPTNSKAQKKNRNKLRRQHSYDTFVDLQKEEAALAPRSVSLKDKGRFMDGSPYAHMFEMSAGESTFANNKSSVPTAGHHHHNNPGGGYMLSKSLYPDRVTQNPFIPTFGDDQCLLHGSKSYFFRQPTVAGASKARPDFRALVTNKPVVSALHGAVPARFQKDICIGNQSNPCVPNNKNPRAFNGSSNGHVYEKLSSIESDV

The assay deals with cloned human NR1/NR2B ion channels (Homo sapiens (Human), UniProt Q05586+Q13224). Put plainly: HNR2BC: effects of test articles on cloned human NR1/NR2B ion channels expressed in mammalian cells (FLIPR calcium flux). In kind it is cell-based. As to conditions: cloned human NR1/NR2B, Table 5. The method, boiled down:
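Compounds were added to dye-loaded cells for 5 min with fluorescence monitored for agonism, followed by co-agonists (glutamate ~EC80, glycine 10 μM saturating) for 5 min. Cells stably expressed inducible human NR1/NR2B, and the buffer was pH 7.4. The FLIPR Ca2+ flux signal was normalized against control wells.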
In general terms: Calcium flux is commonly read through the fluorescence of an indicator in the cells.
Take `O=C(Cn1ccc2ncc(-c3cc(F)cc(F)c3)cc21)N1CC(F)C1` [Example 129, 2-[6-(3,5-Difluorophenyl)pyrrolo[3,2-b]pyridin-1-yl]-1-(3-fluoroazetidin-1-yl)ethanone]: the concentration for half-maximal inhibition (IC50) is 0.0251 µM.
Turning to `Cc1csc(-c2cnc3ccn(Cc4cccnn4)c3c2)c1` [Example 130, 6-(4-Methyl-2-thienyl)-1-(pyridazin-3-ylmethyl)pyrrolo[3,2-b]pyridine], the pIC50 is given as 7.7.
With `Fc1ccc(-c2cnc3ccn(Cc4cccnn4)c3c2)cc1F` [Example 131, 6-(3,4-Difluorophenyl)-1-(pyridazin-3-ylmethyl)pyrrolo[3,2-b]pyridine], the IC50 was 0.126 µM.
With `Cc1csc(-c2cnc3ccn(CC(=O)N4CCOCC4)c3c2)c1` [Example 132, 2-[6-(4-Methyl-2-thienyl)pyrrolo[3,2-b]pyridin-1-yl]-1-morpholino-ethanone], the 50% inhibitory concentration (IC50) was 0.126 µM.
Same read-out and setting: with `O=C(Cn1ccc2ncc(-c3ccc(F)cc3F)cc21)N1CCC1` [Example 133, 1-(Azetidin-1-yl)-2-[6-(2,4-difluorophenyl)pyrrolo[3,2-b]pyridin-1-yl]ethanone] the figure was 0.0794 µM.
As to `O=C(Cn1ccc2ncc(-c3cccc(F)c3F)cc21)N1CCC1` [Example 134, 1-(Azetidin-1-yl)-2-[6-(2,3-difluorophenyl)pyrrolo[3,2-b]pyridin-1-yl]ethanone], the IC50 was 0.0316 µM.
Take `O=C(Cn1ccc2ncc(-c3cc(F)ccc3F)cc21)N1CCC1` [Example 135, 1-(Azetidin-1-yl)-2-[6-(2,5-difluorophenyl)pyrrolo[3,2-b]pyridin-1-yl]ethanone]: the concentration for half-maximal inhibition (IC50) is 0.0398 µM.
Still for that read-out and setting: in the case of `O=C(Cn1cc(F)c2ncc(-c3ccc(F)c(F)c3)cc21)C1CC1` [Example 136, 1-Cyclopropyl-2-[6-(3,4-difluorophenyl)-3-fluoro-pyrrolo[3,2-b]pyridin-1-yl]ethanone] it was 0.0631 µM.
`Cc1csc(-c2cnc3ccn(Cc4ccc(C(F)(F)F)o4)c3c2)c1` [Example 137, 6-(4-Methyl-2-thienyl)-1-[[5-(trifluoromethyl)-2-furyl]methyl]pyrrolo[3,2-b]pyridine]: the negative-log IC50 (pIC50) was 7.7.
With `CC(C)(C)C(=O)Cn1ccc2ncc(-c3ccc(F)c(F)c3)cc21` [Example 140, 1-[6-(3,4-Difluorophenyl)pyrrolo[3,2-b]pyridin-1-yl]-3,3-dimethyl-butan-2-one], the half-inhibitory concentration (IC50) was 0.0316 µM.
The same measure, in the same setting: with `Cc1cc(-c2cnc3ccn(CC(=O)C(C)(C)C)c3c2)ccc1F` [Example 141, 1-[6-(4-Fluoro-3-methyl-phenyl)pyrrolo[3,2-b]pyridin-1-yl]-3,3-dimethyl-butan-2-one] the figure was 0.398 µM; with `CC(C)(C)C(=O)Cn1ccc2ncc(-c3cc(F)cc(F)c3)cc21` [Example 142, 1-[6-(3,5-Difluorophenyl)pyrrolo[3,2-b]pyridin-1-yl]-3,3-dimethyl-butan-2-one], 0.501 µM; with `Cc1csc(-c2cnc3ccn(CC(=O)C(C)(C)C)c3c2)c1` [Example 143, 3,3-Dimethyl-1-[6-(4-methyl-2-thienyl)pyrrolo[3,2-b]pyridin-1-yl]butan-2-one], 0.794 µM.
Regarding `CC(C)(C)C(=O)Cn1ccc2ncc(-c3cccc(C(F)F)c3)cc21` [Example 144, 1-[6-[3-(Difluoromethyl)phenyl]pyrrolo[3,2-b]pyridin-1-yl]-3,3-dimethyl-butan-2-one], the IC50 was 2 µM.
On the same count and under the same terms, in the case of `CCc1cccc(-c2cnc3ccn(CC(=O)C(C)(C)C)c3c2)c1` [Example 145, 1-[6-(3-Ethylphenyl)pyrrolo[3,2-b]pyridin-1-yl]-3,3-dimethyl-butan-2-one] it was 0.501 µM; in that of `Cc1cc(-c2cnc3c(Cl)cn(CC(=O)N(C)C)c3c2)ccc1F` [Example 146, 2-[3-Chloro-6-(4-fluoro-3-methyl-phenyl)pyrrolo[3,2-b]pyridin-1-yl]-N,N-dimethyl-acetamide], 1 µM.
The same measure, in the same setting: in the case of `CN(C)C(=O)Cn1cc(Cl)c2ncc(-c3ccc(F)c(F)c3)cc21` [Example 147, 2-[3-Chloro-6-(3,4-difluorophenyl)pyrrolo[3,2-b]pyridin-1-yl]-N,N-dimethyl-acetamide] it was 0.0501 µM; in that of `CN(C)C(=O)Cn1cc(Cl)c2ncc(-c3cc(F)cc(F)c3)cc21` [Example 148, 2-[3-Chloro-6-(3,5-difluorophenyl)pyrrolo[3,2-b]pyridin-1-yl]-N,N-dimethyl-acetamide], 0.0501 µM; in that of `Cc1csc(-c2cnc3c(Cl)cn(CC(=O)N(C)C)c3c2)c1` [Example 149, 2-[3-Chloro-6-(4-methyl-2-thienyl)pyrrolo[3,2-b]pyridin-1-yl]-N,N-dimethyl-acetamide], 0.0501 µM.
As for `CN(C)C(=O)Cn1cc(Cl)c2ncc(-c3cccc(C(F)F)c3)cc21` [Example 150, 2-[3-Chloro-6-[3-(difluoromethyl)phenyl]pyrrolo[3,2-b]pyridin-1-yl]-N,N-dimethyl-acetamide], the pIC50 turned out to be 7.3.
`CCc1cccc(-c2cnc3c(Cl)cn(CC(=O)N(C)C)c3c2)c1` [Example 151, 2-[3-Chloro-6-(3-ethylphenyl)pyrrolo[3,2-b]pyridin-1-yl]-N,N-dimethyl-acetamide]: the IC50 was 0.0794 µM.
Take `CN(C)C(=O)Cn1cc(Cl)c2ncc(-c3cc(F)c(F)c(F)c3)cc21` [Example 152, 2-[3-Chloro-6-(3,4,5-trifluorophenyl)pyrrolo[3,2-b]pyridin-1-yl]-N,N-dimethyl-acetamide]: the concentration for half-maximal inhibition (IC50) is 0.1 µM.
Same read-out and setting: with `Cc1csc(-c2cnc3ccn(CC(=O)NC4CC4)c3c2)c1` [Example 153, N-Cyclopropyl-2-[6-(4-methyl-2-thienyl)pyrrolo[3,2-b]pyridin-1-yl]acetamide trifluoroacetate salt] the figure was 0.0631 µM; with `Cc1cccc(-c2cnc3ccn(CC(=O)NC4CC4)c3c2)c1C` [Example 154, N-Cyclopropyl-2-[6-(2,3-dimethylphenyl)pyrrolo[3,2-b]pyridin-1-yl]acetamide trifluoroacetate salt], 0.398 µM; with `Cc1cccc(-c2cnc3ccn(CC(=O)NC4CC4)c3c2)c1` [Example 155, N-Cyclopropyl-2-[6-(m-tolyl)pyrrolo[3,2-b]pyridin-1-yl]acetamide trifluoroacetate salt], 0.251 µM.
The same measure, in the same setting: in the case of `O=C(Cn1ccc2ncc(-c3ccc(Cl)c(Cl)c3)cc21)NC1CC1` [Example 156, N-Cyclopropyl-2-[6-(3,4-dichlorophenyl)pyrrolo[3,2-b]pyridin-1-yl]acetamide trifluoroacetate salt] it was 0.2 µM; in that of `Cc1c(-c2cnc3ccn(CC(=O)NC4CC4)c3c2)cccc1C(F)(F)F` [Example 157, N-Cyclopropyl-2-[6-[2-methyl-3-(trifluoromethyl)phenyl]pyrrolo[3,2-b]pyridin-1-yl]acetamide trifluoroacetate salt], 0.251 µM; in that of `O=C(Cn1ccc2ncc(-c3ccccc3)cc21)NC1CC1` [Example 158, N-Cyclopropyl-2-(6-phenylpyrrolo[3,2-b]pyridin-1-yl)acetamide trifluoroacetate salt], 0.631 µM.
Same read-out and setting: with `Cc1c(F)ccc(-c2cnc3ccn(CC(=O)NC4CC4)c3c2)c1C` [Example 159, N-Cyclopropyl-2-[6-(4-fluoro-2,3-dimethyl-phenyl)pyrrolo[3,2-b]pyridin-1-yl]acetamide trifluoroacetate salt] the figure was 0.251 µM; with `Cc1ccccc1-c1cnc2ccn(CC(=O)NC3CC3)c2c1` [Example 160, N-Cyclopropyl-2-[6-(o-tolyl)pyrrolo[3,2-b]pyridin-1-yl]acetamide], 0.2 µM; with `Cc1cc(F)ccc1-c1cnc2ccn(CC(=O)NC3CC3)c2c1` [Example 161, N-Cyclopropyl-2-[6-(4-fluoro-2-methyl-phenyl)pyrrolo[3,2-b]pyridin-1-yl]acetamide trifluoroacetate salt], 0.2 µM.
Consider `Cc1ccccc1-c1cnc2ccn(CC(=O)N3CCC3)c2c1` [Example 162, 1-(Azetidin-1-yl)-2-[6-(o-tolyl)pyrrolo[3,2-b]pyridin-1-yl]ethanone trifluoroacetate salt], for which the half-inhibitory concentration (IC50) was 0.1 µM.
Still for that read-out and setting: with `Cc1cc(F)ccc1-c1cnc2ccn(CC(=O)N3CCC3)c2c1` [Example 163, 1-(Azetidin-1-yl)-2-[6-(4-fluoro-2-methyl-phenyl)pyrrolo[3,2-b]pyridin-1-yl]ethanone trifluoroacetate salt] the figure was 0.0794 µM; with `Cc1c(F)ccc(-c2cnc3ccn(CC(=O)N4CCC4)c3c2)c1C` [Example 164, 1-(Azetidin-1-yl)-2-[6-(4-fluoro-2,3-dimethyl-phenyl)pyrrolo[3,2-b]pyridin-1-yl]ethanone trifluoroacetate salt], 0.0631 µM.
On the same count and under the same terms, in the case of `Cc1cccc(-c2cnc3ccn(CC(=O)N4CCC4)c3c2)c1C` [Example 165, 1-(Azetidin-1-yl)-2-[6-(2,3-dimethylphenyl)pyrrolo[3,2-b]pyridin-1-yl]ethanone trifluoroacetate salt] it was 0.0631 µM.
Same read-out and setting: with `Cc1c(-c2cnc3ccn(CC(=O)N4CCC4)c3c2)cccc1C(F)(F)F` [Example 167, 1-(Azetidin-1-yl)-2-[6-[2-methyl-3-(trifluoromethyl)phenyl]pyrrolo[3,2-b]pyridin-1-yl]ethanone trifluoroacetate salt] the figure was 0.0398 µM.
As to `O=C(Cn1ccc2ncc(-c3ccc(F)cc3)cc21)NC1CC1` [Example 168, N-Cyclopropyl-2-[6-(4-fluorophenyl)pyrrolo[3,2-b]pyridin-1-yl]acetamide], the half-inhibitory concentration (IC50) was 0.251 µM.
With `Cc1cc(-c2cnc3c(C)cn(CC(=O)N4CCC4)c3c2)ccc1F` [Example 169, 1-(Azetidin-1-yl)-2-[6-(4-fluoro-3-methyl-phenyl)-3-methyl-pyrrolo[3,2-b]pyridin-1-yl]ethanone trifluoroacetate salt], the IC50 was 0.2 µM.
Still for that read-out and setting: in the case of `CCCCn1ccc2ncc(-c3ccc(F)c(C)c3)cc21` [Example 170, 1-Butyl-6-(4-fluoro-3-methyl-phenyl)pyrrolo[3,2-b]pyridine trifluoroacetate salt] it was 0.316 µM.
